Data set [1] concerns the target T1, Cannabinoid receptor (Mus musculus) (UniProt P47746+P47936). As to the kind of experiment: Agonist activity at cannabinoid receptor in ICR mouse vas deferens assessed as inhibition of electrically induced contractions at 1.82 x 10^-5 M after 10 mins relative to control. Type of data set: protein assay.
For data set [2], the target named is T2, Cholinesterase (Homo sapiens, UniProt P06276). Briefly: Inhibition of human serum BChE using butyrylthiocholine as substrate by Ellman's assay. On the technique in general: Ellman's reagent forms a yellow product with free thiols.
Data set [3] concerns the target T1, Cannabinoid receptor (Mus musculus). As to the kind of experiment: Agonist activity at cannabinoid receptor in ICR mouse vas deferens assessed as inhibition of electrically induced contractions at 1.82 x 10^-5 M after 10 mins in presence of CB2 antagonist AM630 relative to control. Type of data set: protein assay.
In data set [4] the target is Beta-secretase 1 (Homo sapiens) (UniProt P56817). Briefly: Inhibition of human BACE1 at 10 uM incubated for 60 mins using rhodamine-EVNLDAEFK-quencher substrate by FRET assay.
The species entered for data set [5] is Homo sapiens. As to the kind of experiment: Antiproliferative activity against Alzheimer's patient derived lymphoblast cells at 5 uM after 72 hrs by MTT assay. Type of data set: functional. A general note: Tetrazolium dyes change colour on reduction, which living cells bring about.
The target in data set [6] is T1, Cannabinoid receptor (Mus musculus). Briefly: Agonist activity at cannabinoid receptor in ICR mouse vas deferens assessed as inhibition of electrically induced contractions at 2.7 x 10^-6 M after 10 mins in presence of CB1 antagonist AM251 relative to control. Type of data set: protein assay.
For data set [7], the target named is T3, Acetylcholinesterase (Homo sapiens, UniProt P22303). As to the kind of experiment: Inhibition of human erythrocyte AChE at 10 uM using acetylthiocholine as substrate by Ellman's assay.
In data set [8] the target is T1, Cannabinoid receptor (Mus musculus). Briefly: Agonist activity at cannabinoid receptor in ICR mouse vas deferens assessed as inhibition of electrically induced contractions at 1.82 x 10^-5 M after 10 mins in presence of CB1 antagonist AM251 relative to control. Type of data set: protein assay.
Data set [9] is filed under the species Homo sapiens. Briefly: Antiproliferative activity against Alzheimer's patient derived lymphoblast cells at 5 uM in presence of CB2 antagonist AM630 after 72 hrs by MTT assay. Type of data set: functional.
For data set [10], the system named is SH-SY5Y. Briefly: Neuroprotective activity against amyloid beta-induced neurodegeneration in human SH-SY5Y cells at 20 uM preincubated for 1 hr followed by amyloid beta addition and measured after 24 hrs by MTT assay. Type of data set: functional, cell-based.
Data set [11] has as its target T1, Cannabinoid receptor (Mus musculus). As to the kind of experiment: Agonist activity at cannabinoid receptor in ICR mouse vas deferens assessed as inhibition of electrically induced contractions at 8.1 x 10^-6 M after 10 mins in presence of CB1 antagonist AM251 relative to control. Type of data set: protein assay.
In data set [12] the target is T3, Acetylcholinesterase. As to the kind of experiment: Inhibition of human erythrocyte AChE using acetylthiocholine as substrate by Ellman's assay.
Data set [13] concerns SH-SY5Y. As to the kind of experiment: Neuroprotective activity against amyloid beta-induced neurodegeneration in human SH-SY5Y cells at 20 uM preincubated for 1 hr followed by amyloid beta addition and measured after 24 hrs in presence of CB2 antagonist AM630 by MTT assay. Type of data set: functional, cell-based.
For data set [14], the target named is T2, Cholinesterase. Briefly: Inhibition of human serum BChE at 10 uM using butyrylthiocholine as substrate by Ellman's assay.
The target in data set [15] is T1, Cannabinoid receptor (Mus musculus). Briefly: Agonist activity at cannabinoid receptor in ICR mouse vas deferens assessed as inhibition of electrically induced contractions at 9 x 10^-7 M after 10 mins in presence of CB2 antagonist AM630 relative to control. Type of data set: protein assay.
For data set [16] the target is unchanged. As to the kind of experiment: Agonist activity at cannabinoid receptor in ICR mouse vas deferens assessed as inhibition of electrically induced contractions at 9 x 10^-7 M after 10 mins relative to control. Type of data set: protein assay.
The target is the same in data set [17]. Briefly: Agonist activity at cannabinoid receptor in ICR mouse vas deferens assessed as inhibition of electrically induced contractions at 10^-7 M after 10 mins in presence of CB2 antagonist AM630 relative to control. Type of data set: protein assay.
Data set [18] shares this target. As to the kind of experiment: Agonist activity at cannabinoid receptor in ICR mouse vas deferens assessed as inhibition of electrically induced contractions at 2.7 x 10^-6 M after 10 mins relative to control. Type of data set: protein assay.
Data set [19] shares this target. As to the kind of experiment: Agonist activity at cannabinoid receptor in ICR mouse vas deferens assessed as inhibition of electrically induced contractions at 8.1 x 10^-6 M after 10 mins in presence of CB2 antagonist AM630 relative to control. Type of data set: protein assay.
Data set [20] shares this target. As to the kind of experiment: Agonist activity at cannabinoid receptor in ICR mouse vas deferens assessed as inhibition of electrically induced contractions at 3 x 10^-7 M after 10 mins in presence of CB2 antagonist AM630 relative to control. Type of data set: protein assay.
The target is the same in data set [21]. As to the kind of experiment: Agonist activity at cannabinoid receptor in ICR mouse vas deferens assessed as inhibition of electrically induced contractions at 2.7 x 10^-6 M after 10 mins in presence of CB2 antagonist AM630 relative to control. Type of data set: protein assay.
For data set [22] the target is unchanged. As to the kind of experiment: Agonist activity at cannabinoid receptor in ICR mouse vas deferens assessed as inhibition of electrically induced contractions at 8.1 x 10^-6 M after 10 mins relative to control. Type of data set: protein assay.
Data set [23] shares this target. Briefly: Agonist activity at cannabinoid receptor in ICR mouse vas deferens assessed as inhibition of electrically induced contractions at 3 x 10^-7 M after 10 mins relative to control. Type of data set: protein assay.
The nature of data set [24]: Antiproliferative activity against normal human derived lymphoblast cells at 5 uM after 72 hrs by MTT assay.
For data set [25], the target named is T1, Cannabinoid receptor (Mus musculus). As to the kind of experiment: Agonist activity at cannabinoid receptor in ICR mouse vas deferens assessed as inhibition of electrically induced contractions at 10^-7 M after 10 mins relative to control. Type of data set: protein assay.
The nature of data set [26]: Antioxidant activity assessed as trolox equivalent of APPH-induced radical scavenging activity by ORAC-FL assay. Type of data set: functional.
The target in data set [27] is T1, Cannabinoid receptor (Mus musculus). As to the kind of experiment: Agonist activity at cannabinoid receptor in ICR mouse vas deferens assessed as inhibition of electrically induced contractions at 10^-7 M after 10 mins in presence of CB1 antagonist AM251 relative to control. Type of data set: protein assay.
For data set [28] the target is unchanged. As to the kind of experiment: Agonist activity at cannabinoid receptor in ICR mouse vas deferens assessed as inhibition of electrically induced contractions at 2.7 x 10^-6 M after 10 mins in presence of CB1 antagonist AM251 and CB2 antagonist AM630 relative to control. Type of data set: protein assay.
Data set [29] shares this target. As to the kind of experiment: Agonist activity at cannabinoid receptor in ICR mouse vas deferens assessed as inhibition of electrically induced contractions at 10^-7 M after 10 mins in presence of CB1 antagonist AM251 and CB2 antagonist AM630 relative to control. Type of data set: protein assay.
For data set [30] the target is unchanged. As to the kind of experiment: Agonist activity at cannabinoid receptor in ICR mouse vas deferens assessed as inhibition of electrically induced contractions at 3 x 10^-7 M after 10 mins in presence of CB1 antagonist AM251 and CB2 antagonist AM630 relative to control. Type of data set: protein assay.
The target is the same in data set [31]. As to the kind of experiment: Agonist activity at cannabinoid receptor in ICR mouse vas deferens assessed as inhibition of electrically induced contractions at 8.1 x 10^-6 M after 10 mins in presence of CB1 antagonist AM251 and CB2 antagonist AM630 relative to control. Type of data set: protein assay.
Data set [32] shares this target. As to the kind of experiment: Agonist activity at cannabinoid receptor in ICR mouse vas deferens assessed as inhibition of electrically induced contractions at 1.82 x 10^-5 M after 10 mins in presence of CB1 antagonist AM251 and CB2 antagonist AM630 relative to control. Type of data set: protein assay.
Data set [33] addresses T2, Cholinesterase. Briefly: Non-competitive inhibition of human serum BChE using butyrylthiocholine as substrate by Lineweaver-Burk plot analysis.
The test system of data set [34] is SH-SY5Y. Briefly: Neuroprotective activity against amyloid beta-induced neurodegeneration in human SH-SY5Y cells at 10 uM preincubated for 1 hr followed by amyloid beta addition and measured after 24 hrs by MTT assay. Type of data set: functional, cell-based.
Data set [35] has as its target T1, Cannabinoid receptor (Mus musculus). Briefly: Agonist activity at cannabinoid receptor in ICR mouse vas deferens assessed as inhibition of electrically induced contractions at 9 x 10^-7 M after 10 mins in presence of CB1 antagonist AM251 and CB2 antagonist AM630 relative to control. Type of data set: protein assay.
Data set [36] relates to SH-SY5Y. Briefly: Neuroprotective activity against amyloid beta-induced neurodegeneration in human SH-SY5Y cells at 10 uM preincubated for 1 hr followed by amyloid beta addition and measured after 24 hrs CB2 antagonist AM630 by MTT assay. Type of data set: functional, cell-based.
The target of data set [37] is T1, Cannabinoid receptor (Mus musculus). Briefly: Agonist activity at cannabinoid receptor in ICR mouse vas deferens assessed as inhibition of electrically induced contractions at 9 x 10^-7 M after 10 mins in presence of CB1 antagonist AM251 relative to control. Type of data set: protein assay.
For data set [38] the target is unchanged. As to the kind of experiment: Agonist activity at cannabinoid receptor in ICR mouse vas deferens assessed as inhibition of electrically induced contractions at 3 x 10^-7 M after 10 mins in presence of CB1 antagonist AM251 relative to control. Type of data set: protein assay.

SMILES strings stand for the structures. Calls of active or inactive are those of the source. The rule behind the calls is not given here.

T1 sequence (P47746 whole entry, looked up): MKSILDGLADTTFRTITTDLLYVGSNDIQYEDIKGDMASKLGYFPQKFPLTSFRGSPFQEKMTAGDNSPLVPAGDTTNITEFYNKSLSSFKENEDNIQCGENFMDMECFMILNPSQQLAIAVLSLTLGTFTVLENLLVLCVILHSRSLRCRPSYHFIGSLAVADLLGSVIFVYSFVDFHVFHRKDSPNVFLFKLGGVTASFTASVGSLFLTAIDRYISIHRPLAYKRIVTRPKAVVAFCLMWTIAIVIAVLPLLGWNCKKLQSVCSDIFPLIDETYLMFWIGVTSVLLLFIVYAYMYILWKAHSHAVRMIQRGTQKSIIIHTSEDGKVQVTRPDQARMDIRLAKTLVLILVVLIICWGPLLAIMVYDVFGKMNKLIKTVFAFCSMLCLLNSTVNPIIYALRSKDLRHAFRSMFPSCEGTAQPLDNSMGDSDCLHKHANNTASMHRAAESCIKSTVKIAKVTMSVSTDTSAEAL
T1 sequence (P47936 whole entry, looked up): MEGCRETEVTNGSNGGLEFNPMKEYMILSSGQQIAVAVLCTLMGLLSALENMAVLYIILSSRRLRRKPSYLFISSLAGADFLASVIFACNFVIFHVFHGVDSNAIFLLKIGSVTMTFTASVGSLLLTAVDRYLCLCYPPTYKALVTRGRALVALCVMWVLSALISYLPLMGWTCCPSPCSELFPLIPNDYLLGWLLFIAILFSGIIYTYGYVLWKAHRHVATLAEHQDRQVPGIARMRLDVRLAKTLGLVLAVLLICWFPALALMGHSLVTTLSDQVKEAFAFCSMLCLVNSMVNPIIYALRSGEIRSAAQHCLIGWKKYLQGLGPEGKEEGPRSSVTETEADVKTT
T3 sequence (P22303 whole entry): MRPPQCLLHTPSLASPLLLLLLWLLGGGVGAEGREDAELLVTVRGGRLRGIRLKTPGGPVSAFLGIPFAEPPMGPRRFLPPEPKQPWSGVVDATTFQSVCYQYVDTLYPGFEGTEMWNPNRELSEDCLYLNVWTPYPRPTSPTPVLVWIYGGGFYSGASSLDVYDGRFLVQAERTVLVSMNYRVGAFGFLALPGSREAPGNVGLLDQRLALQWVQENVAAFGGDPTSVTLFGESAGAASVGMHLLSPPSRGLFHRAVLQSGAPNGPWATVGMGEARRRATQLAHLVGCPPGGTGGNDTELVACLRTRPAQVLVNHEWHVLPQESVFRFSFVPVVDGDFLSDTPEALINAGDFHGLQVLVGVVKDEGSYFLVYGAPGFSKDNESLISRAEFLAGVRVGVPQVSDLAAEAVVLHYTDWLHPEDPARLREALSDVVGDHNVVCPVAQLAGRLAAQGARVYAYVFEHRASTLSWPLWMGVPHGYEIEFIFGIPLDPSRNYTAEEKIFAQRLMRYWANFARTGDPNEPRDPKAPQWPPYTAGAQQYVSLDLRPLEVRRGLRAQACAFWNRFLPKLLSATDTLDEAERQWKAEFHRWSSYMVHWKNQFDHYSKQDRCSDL
Sequence of Beta-secretase 1 (Homo sapiens) (P56817 whole entry): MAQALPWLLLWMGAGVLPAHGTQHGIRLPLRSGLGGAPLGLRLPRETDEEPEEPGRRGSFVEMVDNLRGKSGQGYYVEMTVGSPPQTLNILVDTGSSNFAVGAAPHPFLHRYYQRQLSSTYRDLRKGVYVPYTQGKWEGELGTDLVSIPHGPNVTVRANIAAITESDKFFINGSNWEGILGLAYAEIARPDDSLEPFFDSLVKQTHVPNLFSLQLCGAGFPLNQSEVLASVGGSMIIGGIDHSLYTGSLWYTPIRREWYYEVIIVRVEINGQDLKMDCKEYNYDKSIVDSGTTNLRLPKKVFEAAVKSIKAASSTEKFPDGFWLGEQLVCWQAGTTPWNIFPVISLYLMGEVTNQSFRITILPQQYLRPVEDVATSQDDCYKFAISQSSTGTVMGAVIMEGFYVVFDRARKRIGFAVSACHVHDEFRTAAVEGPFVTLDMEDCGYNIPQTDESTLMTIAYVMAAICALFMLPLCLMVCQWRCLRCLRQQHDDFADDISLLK
T2 sequence (P06276 whole entry): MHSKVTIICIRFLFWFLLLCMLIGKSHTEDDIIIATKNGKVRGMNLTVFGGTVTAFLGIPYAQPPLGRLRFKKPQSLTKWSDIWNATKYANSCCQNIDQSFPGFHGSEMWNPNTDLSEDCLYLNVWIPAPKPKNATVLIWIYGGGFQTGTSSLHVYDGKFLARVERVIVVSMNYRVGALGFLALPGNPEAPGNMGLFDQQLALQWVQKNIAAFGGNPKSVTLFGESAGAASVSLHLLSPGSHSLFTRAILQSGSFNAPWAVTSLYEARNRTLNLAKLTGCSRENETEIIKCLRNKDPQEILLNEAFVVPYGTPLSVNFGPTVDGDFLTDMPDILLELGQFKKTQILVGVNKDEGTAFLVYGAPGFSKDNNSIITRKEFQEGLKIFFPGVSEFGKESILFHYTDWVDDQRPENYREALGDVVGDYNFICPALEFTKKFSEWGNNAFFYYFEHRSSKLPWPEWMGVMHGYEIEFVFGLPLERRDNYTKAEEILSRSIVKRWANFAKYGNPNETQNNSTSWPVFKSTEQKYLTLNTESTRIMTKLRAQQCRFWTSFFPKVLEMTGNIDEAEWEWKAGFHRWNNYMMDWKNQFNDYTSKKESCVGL

For orientation: inhibition means the drop in the measured response relative to a control, in per cent. As usually defined, the IC50 is the concentration needed to halve the response being measured. A higher IC50 goes with lower potency. As to `COc1ccc(CC(=O)n2nc(OCCCN3CCCCC3)c3ccccc32)cc1`, the inhibition in data set [1] is 96%; in data set [3], 94.3%; in [4], 60%; in data set [6] it was -1.6%; against Acetylcholinesterase [7], 43%; in data set [8], 89.7%. In addition, the inhibition is 61.9% in [11]; 42% on Cholinesterase [14]; -1.4% in data set [15]; 16.9% in data set [16]; -9.2% in data set [17]; 42.5% in data set [18]. Moreover, the inhibition in data set [19] was 68.5%; in [20] it was -9.4%; in [21] it was 14.7%; in data set [22] it was 88.5%; in [23] it was -0.3%; in [25], -2.4%. Further, the inhibition in data set [27] is -9.4%. In addition, the IC50 on Cholinesterase [2] and at Acetylcholinesterase [12] was over 10 µM in each case. The result in the data set filed under Homo sapiens [5] and in the data set with SH-SY5Y [10] was Active. Besides, the outcome (in the data set listed under Homo sapiens [9]; in the data set on SH-SY5Y [13]; in data set [26]) was inactive. For the same molecule, in [24], the Activity entry is on record as “Non-Toxic”.
Turning to `COc1ccc(COc2nn(CCN(C(C)C)C(C)C)c3ccccc23)cc1`, the inhibition stood at 86.4% in data set [1]; 20.3% in data set [28]; 9% in data set [4]; 1.3% in [29]; 24% on Acetylcholinesterase [7]; 8.2% in [30]. In addition, the inhibition worked out at 60% in data set [31]; 18.6% in [16]; 43.1% in data set [18]; 84% in data set [32]; 74.7% in data set [22]; 8.5% in data set [23]. In addition, the inhibition in [35] was 12%; in data set [25] it was 7.5%. Further, the outcome in the data set filed under Homo sapiens [5], in the data set with SH-SY5Y [10] and with SH-SY5Y [34] was Active. The outcome in the data set listed under Homo sapiens [9] was inactive. The IC50 against Acetylcholinesterase [12] was over 10 µM. In addition, on Cholinesterase [33], the inhibition entry is “Active”. Further, the Activity result in data set [24] is given as “Non-Toxic”.
Turning to `Cc1cc(C)c(C(=O)n2nc(OCCN3CCCCC3)c3ccccc32)c(C)c1`, the inhibition amounted to 56.8% in [1]; 1.3% in data set [3]; 12% in data set [4]; 8.7% in data set [6]; 40.7% in [8]; 19.8% in [11]. Further, the inhibition in data set [16] was 6.5%; in data set [18], 14%; in data set [19], -4.7%; in [22] it was 30.7%; in [23] it was 3.6%; in data set [37], 7.6%. Further, the inhibition in [38] is 1.4%; in data set [25] it was 2.6%; in [27], -0.4%. Further, the values for the IC50 on Cholinesterase [2] and at Acetylcholinesterase [12] were 0.29 µM and 11.6 µM, respectively. The result in the data set filed under Homo sapiens [5] and in the data set with SH-SY5Y [34] was Active. For the same molecule, the result (in the data set filed under Homo sapiens [9]; in the data set on SH-SY5Y [36]; in data set [26]) was inactive. Also, the Activity entry in data set [24] is on record as “Non-Toxic”.

The record behind these values is ChEMBL document CHEMBL4400519, “Indazolylketones as new multitarget cannabinoid drugs” (Eur J Med Chem, 2019).
